Reference: US20170209544A1, “A PEPTIDE THERAPY TO COUNTERACT INSULIN RESISTANCE AND TYPE 2 DIABETES” (The Regents of the University of California, priority 2014, published 2017)
Where no end group is shown, it is not given here.

Tests used:
peritoneal macrophages = experiment: qPCR of inflammatory genes in cultured peritoneal macrophages; format: cell-based, mice
Experimental: Peritoneal macrophages were isolated after thioglycollate (3% solution in water) stimulation as described. Isolated macrophages were cultured in DMEM with 10% FBS for 48 hours with daily medium changes. Cells were then serum-starved overnight in DMEM with low FBS (0.5%) and then exposed to saline, PST (100 nM), or LPS (100 ng/ml) for 4 hours. At the end of incubation, the cultures were subjected to RNA extraction.
(§1) RNA from tissues was extracted using a kit (RNeasy Plus, Qiagen, Valencia, Calif.). After DNase digestion, 200 ng of RNA was transcribed into cDNA in a 20-μl reaction using a High Capacity cDNA Archive kit and this cDNA was amplified. PCR (25-μl reactions) contained 5 μl of cDNA, 2×SYBR Green PCR Master Mix, and 400 nM of each primer. Differences in the threshold cycle number (ΔCt) between the target gene, the housekeeping gene Gapdh and the ribosomal protein gene 36B4 were used to calculate differences in expression. Primer sequences are provided below.
As shown in FIGS. 18A-18H, PST promotes macrophage inflammation and chemotaxis. Peritoneal macrophages were isolated from WT-NCD and KO-NCD after thioglycollate injection. After 4-hr exposure to saline, LPS (100 ng/ml) or PST (100 nM), RNAs were extracted and cDNAs were prepared for qPCR analyses of Chga (FIG. 18A, n=8), iNos (FIG. 18B, n=8), Tnfα (FIG. 18C, n=8), Mcp-1 (FIG. 18D, n=8), IL-6 (FIG. 18E, n=8), IL-12p40 (FIG. 18F, n=8) and iNos genes (FIG. 18G, n=8). (FIG. 18H) Effects of PST on chemotaxis of activated macrophages from NCD-fed C57BL/6J mice (n=5). “*” Denotes comparison between the indicated groups. “*”: P<0.05, “**”: p<0.01, “***”: p<0.001.

Bip/GRP78 = Bip/GRP78 (Mus musculus, UniProt P20029); experiment: Pull down assay using biotinylated PST; format: binding
Chain of Bip/GRP78 (P20029 20-655): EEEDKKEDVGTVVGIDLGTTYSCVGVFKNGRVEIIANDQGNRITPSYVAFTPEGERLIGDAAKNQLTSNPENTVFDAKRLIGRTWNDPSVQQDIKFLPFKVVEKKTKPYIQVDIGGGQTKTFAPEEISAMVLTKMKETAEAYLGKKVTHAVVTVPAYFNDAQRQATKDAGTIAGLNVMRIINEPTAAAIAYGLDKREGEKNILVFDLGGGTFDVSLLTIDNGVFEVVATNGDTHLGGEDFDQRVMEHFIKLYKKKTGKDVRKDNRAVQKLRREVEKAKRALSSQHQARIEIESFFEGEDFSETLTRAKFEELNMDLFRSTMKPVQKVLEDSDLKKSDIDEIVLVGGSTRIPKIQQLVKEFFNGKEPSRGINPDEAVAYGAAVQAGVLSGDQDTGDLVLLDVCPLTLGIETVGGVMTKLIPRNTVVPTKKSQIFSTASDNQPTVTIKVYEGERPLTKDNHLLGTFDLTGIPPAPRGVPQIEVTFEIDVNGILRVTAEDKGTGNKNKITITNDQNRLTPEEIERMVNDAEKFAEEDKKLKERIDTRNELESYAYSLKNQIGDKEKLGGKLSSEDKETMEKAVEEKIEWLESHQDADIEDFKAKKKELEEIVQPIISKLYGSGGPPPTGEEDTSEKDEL
Excerpt: PST interacts with ER chaperone, GRP78/BiP. […] Moreover, PST inhibits GRP78's ATPase enzymatic activity, and impairs its biosynthetic response to UPR activation. PST as an inhibitor of ATPase activity augments expression of gluconeogenic gene and G6Pase. GRP78 over-expression antagonizes this PST action.

Chga-KO mice = experiment: Body weight of Chga-KO mice on NCD; format: in vivo; details: PST administration for 2 weeks
KO-DIO mice = experiment: Hepatic gene expression in PST-treated KO-DIO mice; format: in vivo; details: PST 5 μg/g BW for 15 days
Experimental: as §1
To determine chronic effects, KO-NCD mice were treated with saline, PST (5 μg/g BW), PSTv1 (10 μg/g BW) or PST+PSTv1 for 15 days, fasted for 12 hrs after the last of injection and subjected to (FIG. 14C) GTT (2-way ANOVA: Treatment (Sal vs PST), Time, p<0.0001; Interaction, p<0.05; Treatment (PST vs PSTv1), p<0.0001; Time, p<0.0001; Interaction, p<0.01; n=7). The corresponding AUC is shown in (FIG. 14D). FIG. 14E reports liver glycogen at basal and during clamp in DIO mice (n=6). FIG. 14F reports chronic effects of PST (5 μg/g BW for 15 days) on expression of hepatic gluconeogenic genes (Pepck and G6pase) in DIO mice (n=6). FIG. 14G reports chronic effects of PST (5 μg/g BW for 15 days) on expression of hepatic lipid metabolic (Acc, Ppara, Cpt-1, Acox-1 and Srebp-1) genes in DIO mice (n=6). […]

[1] = PST 100 nM, 4 hr, Chga-KO macrophages

“PEGKGEQEHSQQKEEEEEMAVVPQGLFRG-amide (PEGKGEQEHSQQKEEEEEMAVVPQGLFRG-NH2) [PST, Wild-type human pancreastatin, a chromogranin A derived peptide]” was tested, and the “expression of IL-6, IL-12p40 and iNos genes” value (peritoneal macrophages; [1]) was “had no effect”, the “expression of Tnfα and Mcp-1” value (peritoneal macrophages; [1]) was “increased” and the “expression of Tnfα, Mcp-1, IL-6, IL-12p40 and iNos” value (peritoneal macrophages; macrophage cultures from WT and Chga-KO mice on NCD) was “increased”. The “binding to ER chaperone Bip/GRP78” value (Bip/GRP78) was “binds”, the body weight (Chga-KO mice) was “did not change” and the “lower mRNA levels of Pepck and G6pase in KO-DIO liver” value (KO-DIO mice) was “reversed”. The “expression of Acox-1 and Cpt-1” value (KO-DIO mice; liver) was “increased”.
